# Results taken from patent US20230146593A1, “METHOD FOR TREATMENT AND PROPHYLAXIS OF CRS IN PATIENTS COMPRISING A COMBINATION OF BISPECIFIC ANTIBODIES BINDING TO CDS X CANCER CELL AND TNF ALPHA OR IL-6 INHIBITOR” (AMGEN INC., priority 2020, published 2023).
# Assays:
# [1] = tested on: Adult patients with R/R AML (CRS); conditions: human, in vivo
# TNF = TNF levels in patients after blinatumomab in cycle 1; format: in vivo, human
# [2] = tested on: VCAM-1 on endothelial cells (HUVEC); test: Blinatumumab VCAM assay: VCAM-1 on CD31+ HUVEC in co-culture with T cells and NALM-6 cells (flow cytometry); format: cell-based, human; conditions: co-culture of HUVEC, isolated T cells and NALM-6 target cells
# Protocol: FIG. 7. VCAM-1 Expression on HUVEC in AMG 103 Co-culture Assays: VCAM-1 expression by flow cytometry. […] expression levels are expressed as Median Fluorescence Intensity (MFI). VCAM-1 expressing HUVEC are expressed as percentage of CD31+ HUVEC. Error bars indicate the standard error of the mean of duplicate measurements. Two PBMC donors were used in this experiment.
# The effect of blinatumumab (AMG 103) on T cell activation and the induction of VCAM-1 on endothelial cells was analyzed in co-cultures of HUVEC, isolated T cells and CD19-expressing NALM-6 target cells. VCAM-1 expression on CD31+ HUVEC was analyzed by flow cytometry.
CRS events per patient [1] [per patient],average duration of CRS events [1],Molecule,time to maximum TNF levels (TNF) [h],VCAM-1 expression on CD31+ HUVEC [2]
2.3,(b) average duration: 58 hrs,C[C@@H]1C[C@H]2[C@@H]3CCC4=CC(=O)C=C[C@]4(C)[C@@]3(F)[C@@H](O)C[C@]2(C)[C@@]1(O)C(=O)CO [dexamethasone],,
,,blinatumomab,≤ 2,up-regulated
